Data from PMC5218480 (PLoS ONE, 2017).

Tested on: MV-4-11 cells
Test: Gene expression microarray analysis (Affymetrix PrimeView) and GSEA
Type: cell-based, human
Design: RFU PODN (11730768_x_at) / Fold change /veh PODN (11730768_x_at) / RFU LINC00158 (11744669_a_at) / Fold change /veh LINC00158 (11744669_a_at) / RFU DUSP10 (11751237_a_at) / Fold change /veh DUSP10 (11751237_a_at) / RFU ID3 (11757404_x_at) / Fold change /veh ID3 (11757404_x_at) / RFU PLEKHG5 (11737974_s_at) / Fold change /veh PLEKHG5 (11737974_s_at) / RFU LRRC4B (11730491_at) / Fold change /veh LRRC4B (11730491_at) / RFU GIMAP4 (11747438_a_at) / Fold change /veh GIMAP4 (11747438_a_at) / RFU KRT8 (11758183_x_at) / Fold change /veh KRT8 (11758183_x_at) / RFU CNN1 (11734310_a_at) / Fold change /veh CNN1 (11734310_a_at) / RFU VPS37D (11726825_at) / Fold change /veh VPS37D (11726825_at) / RFU C10orf10 (11716522_x_at) / Fold change /veh C10orf10 (11716522_x_at) / RFU KIR2DL2 /// KIR2DL4 /// KIR2DL5A /// KIR2DL5B /// KIR2DS1 /// KIR2DS2 /// KIR2DS3 /// KIR2DS4 /// KIR3DL3 /// KIR3DL3 /// KIR3DS1 (11738374_at) / Fold change /veh KIR2DL2 /// KIR2DL4 /// KIR2DL5A /// KIR2DL5B /// KIR2DS1 /// KIR2DS2 /// KIR2DS3 /// KIR2DS4 /// KIR3DL3 /// KIR3DL3 /// KIR3DS1 (11738374_at) / RFU C1QL1 (11718748_at) / Fold change /veh C1QL1 (11718748_at) / RFU TMPRSS4 (11747572_a_at) / Fold change /veh TMPRSS4 (11747572_a_at) / RFU HAMP (11756126_x_at) / Fold change /veh HAMP (11756126_x_at) / RFU RNFT2 (11725882_a_at) / Fold change /veh RNFT2 (11725882_a_at) / RFU NR4A2 (11747474_a_at) / Fold change /veh NR4A2 (11747474_a_at) / RFU ABCC12 (11746883_a_at) / Fold change /veh ABCC12 (11746883_a_at) / RFU TMEM136 (11760407_x_at) / Fold change /veh TMEM136 (11760407_x_at) / RFU CLDN22 /// WWC2 (11732394_at) / Fold change /veh CLDN22 /// WWC2 (11732394_at) / RFU HLA-DPB1 (11760878_x_at) / Fold change /veh HLA-DPB1 (11760878_x_at) / RFU SPINT1 (11716480_a_at) / Fold change /veh SPINT1 (11716480_a_at) / RFU GAP43 (11754022_s_at) / Fold change /veh GAP43 (11754022_s_at) / RFU A4GNT (11735810_at) / Fold change /veh A4GNT (11735810_at) / RFU PRB3 (11715151_x_at) / Fold change /veh PRB3 (11715151_x_at) / RFU TUBB4B (11761932_at) / Fold change /veh TUBB4B (11761932_at) / RFU CAPN14 (11732068_a_at) / Fold change /veh CAPN14 (11732068_a_at) / RFU TMCC2 (11721928_a_at) / Fold change /veh TMCC2 (11721928_a_at) / RFU IRGQ (11745062_a_at) / Fold change /veh IRGQ (11745062_a_at) / RFU FAM174B (11720279_a_at) / Fold change /veh FAM174B (11720279_a_at) / RFU TMPRSS4 (11748680_a_at) / Fold change /veh TMPRSS4 (11748680_a_at) / RFU FAM212B (11763350_a_at) / Fold change /veh FAM212B (11763350_a_at) / RFU PLEKHG5 (11743358_a_at) / Fold change /veh PLEKHG5 (11743358_a_at) / RFU ZSCAN30 (11745921_a_at) / Fold change /veh ZSCAN30 (11745921_a_at) / RFU CMKLR1 (11741424_a_at) / Fold change /veh CMKLR1 (11741424_a_at) / RFU LOC101060620 /// MAPK8IP1 (11723275_at) / Fold change /veh LOC101060620 /// MAPK8IP1 (11723275_at) / RFU SPTSSB (11747773_x_at) / Fold change /veh SPTSSB (11747773_x_at) / RFU PRSS12 (11739890_at) / Fold change /veh PRSS12 (11739890_at) / RFU BIN1 (11741810_x_at) / Fold change /veh BIN1 (11741810_x_at) / RFU WNT11 (11732464_a_at) / Fold change /veh WNT11 (11732464_a_at) / RFU C10orf10 (11716521_a_at) / Fold change /veh C10orf10 (11716521_a_at) / RFU C5orf56 (11738089_at) / Fold change /veh C5orf56 (11738089_at) / RFU CYB561 (11721691_x_at) / Fold change /veh CYB561 (11721691_x_at) / RFU ANKRD19P (11752326_a_at) / Fold change /veh ANKRD19P (11752326_a_at) / RFU OR2T12 /// OR2T33 /// OR2T8 (11738714_s_at) / Fold change /veh OR2T12 /// OR2T33 /// OR2T8 (11738714_s_at) / RFU VCAN (11748164_a_at) / Fold change /veh VCAN (11748164_a_at) / RFU JSRP1 (11732532_at) / Fold change /veh JSRP1 (11732532_at) / RFU KRTAP10-11 (11738290_x_at) / Fold change /veh KRTAP10-11 (11738290_x_at) / RFU MYO3A (11730013_a_at) / Fold change /veh MYO3A (11730013_a_at) / RFU EBF3 (11725865_a_at) / Fold change /veh EBF3 (11725865_a_at) / RFU CAMK2N1 (11719241_x_at) / Fold change /veh CAMK2N1 (11719241_x_at) / RFU C5orf56 (11738088_a_at) / Fold change /veh C5orf56 (11738088_a_at) / RFU OLFML3 (11715873_a_at) / Fold change /veh OLFML3 (11715873_a_at) / RFU LOC100653217 /// NTM (11731650_a_at) / Fold change /veh LOC100653217 /// NTM (11731650_a_at) / RFU MAPK11 (11762145_a_at) / Fold change /veh MAPK11 (11762145_a_at) / RFU FIZ1 (11724087_x_at) / Fold change /veh FIZ1 (11724087_x_at) / RFU OASL (11726364_x_at) / Fold change /veh OASL (11726364_x_at) / RFU SOX15 (11748057_x_at) / Fold change /veh SOX15 (11748057_x_at) / RFU CD79A (11719716_a_at) / Fold change /veh CD79A (11719716_a_at) / RFU HIST1H1D (11736915_at) / Fold change /veh HIST1H1D (11736915_at) / RFU CASKIN2 (11723855_a_at) / Fold change /veh CASKIN2 (11723855_a_at) / RFU LOC730098 (11760151_x_at) / Fold change /veh LOC730098 (11760151_x_at) / RFU OR4N2 (11742367_at) / Fold change /veh OR4N2 (11742367_at) / RFU PRRT2 (11749266_a_at) / Fold change /veh PRRT2 (11749266_a_at) / RFU SNX32 (11753110_a_at) / Fold change /veh SNX32 (11753110_a_at) / RFU CDHR5 (11726645_a_at) / Fold change /veh CDHR5 (11726645_a_at) / RFU RCAN1 (11760418_a_at) / Fold change /veh RCAN1 (11760418_a_at) / RFU FAM167A (11723789_a_at) / Fold change /veh FAM167A (11723789_a_at) / RFU FAM26E (11764081_at) / Fold change /veh FAM26E (11764081_at) / RFU ISYNA1 (11749810_s_at) / Fold change /veh ISYNA1 (11749810_s_at) / RFU ACY1 (11761880_at) / Fold change /veh ACY1 (11761880_at) / RFU 11764098_at / Fold change /veh 11764098_at / RFU SAMD14 (11745864_x_at) / Fold change /veh SAMD14 (11745864_x_at) / RFU NPB (11741838_a_at) / Fold change /veh NPB (11741838_a_at) / RFU TMPRSS6 (11731388_a_at) / Fold change /veh TMPRSS6 (11731388_a_at) / RFU KRTAP10-2 (11738614_at) / Fold change /veh KRTAP10-2 (11738614_at) / RFU ARHGAP8 /// PRR5-ARHGAP8 (11727945_x_at) / Fold change /veh ARHGAP8 /// PRR5-ARHGAP8 (11727945_x_at) / RFU KRTAP5-7 /// NADSYN1 (11734609_at) / Fold change /veh KRTAP5-7 /// NADSYN1 (11734609_at) / RFU RASL12 (11751679_a_at) / Fold change /veh RASL12 (11751679_a_at) / RFU CDKN2B (11736163_a_at) / Fold change /veh CDKN2B (11736163_a_at) / RFU PRF1 (11729649_at) / Fold change /veh PRF1 (11729649_at) / RFU, ZNF638 /// ZNF638-IT1 / Fold change vs veh, ZNF638 /// ZNF638-IT1 / RFU, PANK3 / Fold change vs veh, PANK3 / RFU, SH3YL1 / Fold change vs veh, SH3YL1 / RFU, ZEB2 / Fold change vs veh, ZEB2 / RFU, NRIP1 / Fold change vs veh, NRIP1 / RFU, PTTG1IP / Fold change vs veh, PTTG1IP / RFU, CAPN2 / Fold change vs veh, CAPN2 / RFU, MED14 / Fold change vs veh, MED14 / RFU, SNORA58 / Fold change vs veh, SNORA58 / RFU, C1orf63 / Fold change vs veh, C1orf63 / RFU, LRRFIP1 / Fold change vs veh, LRRFIP1 / RFU, NDUFAF7 / Fold change vs veh, NDUFAF7 / RFU, SLC12A2 / Fold change vs veh, SLC12A2 / RFU, IBTK / Fold change vs veh, IBTK / RFU, ESF1 / Fold change vs veh, ESF1 / Fold change vs veh, TMEM50B / RFU, TAOK1 / Fold change vs veh, TAOK1 / RFU, ACBD3 / Fold change vs veh, ACBD3 / RFU, TMA16 / Fold change vs veh, TMA16 / RFU, RWDD3 / Fold change vs veh, RWDD3 / RFU, BCAT1 / Fold change vs veh, BCAT1 / RFU, EDEM3 / Fold change vs veh, EDEM3 / RFU, TMEM33 / Fold change vs veh, TMEM33 / RFU, WDR75 / Fold change vs veh, WDR75 / RFU, AHCTF1 / Fold change vs veh, AHCTF1 / RFU, TFRC / Fold change vs veh, TFRC / RFU, ZDHHC17 / Fold change vs veh, ZDHHC17 / RFU, NOM1 / Fold change vs veh, NOM1 / RFU, ARL8B / Fold change vs veh, ARL8B / RFU, ZBTB11 / Fold change vs veh, ZBTB11 / RFU, TAMM41 / Fold change vs veh, TAMM41 / RFU, KIAA1704 /// LOC100996395 / Fold change vs veh, KIAA1704 /// LOC100996395 / RFU, ING1 / Fold change vs veh, ING1 / RFU, TRMT61B / Fold change vs veh, TRMT61B / RFU, FUBP3 / Fold change vs veh, FUBP3 / RFU, TP53 / Fold change vs veh, TP53 / RFU, TNKS2 / Fold change vs veh, TNKS2 / RFU, ZFP14 / Fold change vs veh, ZFP14 / RFU, ACTR2 / Fold change vs veh, ACTR2 / RFU, PPP3R1 / Fold change vs veh, PPP3R1 / RFU, PIK3R1 / Fold change vs veh, PIK3R1 / RFU, HNRNPA1 / Fold change vs veh, HNRNPA1 / RFU, RNF170 / Fold change vs veh, RNF170 / RFU, ZNF28 / Fold change vs veh, ZNF28 / RFU, RNGTT / Fold change vs veh, RNGTT / RFU, OGT / Fold change vs veh, OGT / RFU, BRD1 / Fold change vs veh, BRD1 / RFU, MARS / Fold change vs veh, MARS / RFU, ZNF655 / Fold change vs veh, ZNF655 / RFU, FAHD1 / Fold change vs veh, FAHD1 / RFU, BDP1 / Fold change vs veh, BDP1 / RFU, LRRCC1 / Fold change vs veh, LRRCC1 / RFU, ARID1A / Fold change vs veh, ARID1A / RFU, ZNF146 / Fold change vs veh, ZNF146 / RFU, ZNF330 / Fold change vs veh, ZNF330 / RFU, GPN3 / Fold change vs veh, GPN3 / RFU, C9orf123 / Fold change vs veh, C9orf123 / RFU, N4BP2L2 / Fold change vs veh, N4BP2L2 / RFU, ARFIP1 / Fold change vs veh, ARFIP1 / RFU, FAM179B / Fold change vs veh, FAM179B / RFU, BCL10 / Fold change vs veh, BCL10 / RFU, UHRF1BP1L / Fold change vs veh, UHRF1BP1L / RFU, BET1 / Fold change vs veh, BET1 / RFU, CNOT2 / Fold change vs veh, CNOT2 / RFU, ZNF268 / Fold change vs veh, ZNF268 / Fold change vs veh, ZNF507 / RFU, DGCR2 / Fold change vs veh, DGCR2 / RFU, WDSUB1 / Fold change vs veh, WDSUB1 / Fold change vs veh, HSP90B1 /// MIR3652 / RFU, ADSS / Fold change vs veh, ADSS / RFU, GK / Fold change vs veh, GK / RFU, ZNF148 / Fold change vs veh, ZNF148 / RFU, TAF9 / Fold change vs veh, TAF9 / RFU, SLC1A5 / Fold change vs veh, SLC1A5 / RFU, SLMO2 / Fold change vs veh, SLMO2 / RFU, ABCC4 / Fold change vs veh, ABCC4 / RFU, LOC101060439 /// RAP1B / Fold change vs veh, LOC101060439 /// RAP1B / RFU, RFX7 / Fold change vs veh, RFX7 / RFU, GTPBP10 / Fold change vs veh, GTPBP10 / RFU, CNEP1R1 / Fold change vs veh, CNEP1R1 / RFU, BIVM-ERCC5 /// ERCC5 / Fold change vs veh, BIVM-ERCC5 /// ERCC5 / RFU, ILF3 / Fold change vs veh, ILF3 / RFU 11762660_at / Fold change /veh 11762660_at / RFU VCAN (11757783_s_at) / Fold change /veh VCAN (11757783_s_at) / RFU DDX43 (11728927_at) / Fold change /veh DDX43 (11728927_at) / RFU KRT8 (11758188_x_at) / Fold change /veh KRT8 (11758188_x_at) / RFU NKD1 (11759106_at) / Fold change /veh NKD1 (11759106_at) / RFU SRD5A1 (11742802_a_at) / Fold change /veh SRD5A1 (11742802_a_at) / RFU TPSAB1 /// TPSB2 (11721975_s_at) / Fold change /veh TPSAB1 /// TPSB2 (11721975_s_at) / RFU GSTM3 (11746129_a_at) / Fold change /veh GSTM3 (11746129_a_at) / RFU IL23R (11737362_x_at) / Fold change /veh IL23R (11737362_x_at) / RFU TMEM51 (11727254_a_at) / Fold change /veh TMEM51 (11727254_a_at) / RFU PIWIL2 (11732686_x_at) / Fold change /veh PIWIL2 (11732686_x_at) / RFU ORM1 (11744905_x_at) / Fold change /veh ORM1 (11744905_x_at) / RFU CCDC152 (11743942_at) / Fold change /veh CCDC152 (11743942_at) / RFU ECM1 (11717891_a_at) / Fold change /veh ECM1 (11717891_a_at) / RFU IL23R (11748794_a_at) / Fold change /veh IL23R (11748794_a_at) / RFU TNFAIP8L3 (11732012_x_at) / Fold change /veh TNFAIP8L3 (11732012_x_at) / RFU MBOAT4 (11741988_at) / Fold change /veh MBOAT4 (11741988_at) / RFU 11764193_at / Fold change /veh 11764193_at / RFU TMEM53 (11763286_at) / Fold change /veh TMEM53 (11763286_at) / RFU MAGEB2 (11727129_at) / Fold change /veh MAGEB2 (11727129_at) / RFU TMEM200A (11744735_a_at) / Fold change /veh TMEM200A (11744735_a_at) / RFU CCDC152 (11751479_a_at) / Fold change /veh CCDC152 (11751479_a_at) / RFU FAM211A (11726209_a_at) / Fold change /veh FAM211A (11726209_a_at) / RFU RGS16 (11746705_a_at) / Fold change /veh RGS16 (11746705_a_at) / RFU VCAN (11755009_s_at) / Fold change /veh VCAN (11755009_s_at) / RFU RHOB (11743442_s_at) / Fold change /veh RHOB (11743442_s_at) / RFU RGS16 (11720943_a_at) / Fold change /veh RGS16 (11720943_a_at) / RFU RGS16 (11720944_at) / Fold change /veh RGS16 (11720944_at) / RFU, VPS4B / Fold change vs veh, VPS4B / RFU, CREB1 / Fold change vs veh, CREB1 / RFU, DNAJC13 / Fold change vs veh, DNAJC13 / RFU, GNAQ / Fold change vs veh, GNAQ / RFU, CDK5R1 / Fold change vs veh, CDK5R1 / RFU, ZRANB3 / Fold change vs veh, ZRANB3 / RFU, CUL4A / Fold change vs veh, CUL4A / RFU, CCNY / Fold change vs veh, CCNY / RFU, UFL1 / Fold change vs veh, UFL1 / RFU, COG3 / Fold change vs veh, COG3 / RFU, DIAPH2 / Fold change vs veh, DIAPH2 / RFU, SKA2 / Fold change vs veh, SKA2 / RFU, AFF3 / Fold change vs veh, AFF3 / RFU, LMF1 / Fold change vs veh, LMF1 / RFU, IPO11 / Fold change vs veh, IPO11 / RFU, DFFB / Fold change vs veh, DFFB / RFU, FOXP1 / Fold change vs veh, FOXP1 / RFU, CARD8 / Fold change vs veh, CARD8 / RFU, STRN3 / Fold change vs veh, STRN3 / RFU, ADK / Fold change vs veh, ADK / RFU, RASSF2 / Fold change vs veh, RASSF2 / RFU, WIPF1 / Fold change vs veh, WIPF1 / RFU, LARP1B / Fold change vs veh, LARP1B / RFU, RASA1 / Fold change vs veh, RASA1 / RFU, RB1 / Fold change vs veh, RB1 / RFU, PPFIA1 / Fold change vs veh, PPFIA1 / RFU, MAT2A / Fold change vs veh, MAT2A / RFU, CCT5 / Fold change vs veh, CCT5 / RFU, WDR92 / Fold change vs veh, WDR92 / RFU, CUX1 / Fold change vs veh, CUX1 / RFU, TTC7A / Fold change vs veh, TTC7A / RFU, TMEM135 / Fold change vs veh, TMEM135 / RFU, DEPTOR / Fold change vs veh, DEPTOR / RFU, CPM / Fold change vs veh, CPM / RFU, DNAJB6 / Fold change vs veh, DNAJB6 / RFU, CACNA2D3 / Fold change vs veh, CACNA2D3 / RFU, DTX4 / Fold change vs veh, DTX4 / RFU, TFCP2 / Fold change vs veh, TFCP2 / RFU, GMCL1 /// GMCL1P1 / Fold change vs veh, GMCL1 /// GMCL1P1 / RFU, AEBP2 / Fold change vs veh, AEBP2 / RFU, SNHG1 /// SNORD22 /// SNORD25 /// SNORD26 /// SNORD27 /// SNORD28 /// SNORD29 /// SNORD31 / Fold change vs veh, SNHG1 /// SNORD22 /// SNORD25 /// SNORD26 /// SNORD27 /// SNORD28 /// SNORD29 /// SNORD31 / Fold change (Aza/veh), C12orf56 (ProbeSet 11735607_a_at) / Fold change (ACY-1035/veh), C12orf56 (ProbeSet 11735607_a_at) / Fold change (Aza/veh), FGFR1OP (ProbeSet 11751329_s_at) / Fold change (ACY-1035/veh), FGFR1OP (ProbeSet 11751329_s_at) / Fold change (Aza/veh), VPS36 (ProbeSet 11739960_a_at) / Fold change (ACY-1035/veh), VPS36 (ProbeSet 11739960_a_at) / RFU SYPL1 (11715823_x_at) / Fold change /veh SYPL1 (11715823_x_at) / RFU IGFBP7 (11715501_s_at) / Fold change /veh IGFBP7 (11715501_s_at) / RFU REEP3 (11722064_at) / Fold change /veh REEP3 (11722064_at) / RFU IGLL1 (11728026_x_at) / Fold change /veh IGLL1 (11728026_x_at): dose or concentration left out as unconfirmed
Conditions: ProbeSet 11758779_at; LIST B

## Nc1ncn([C@@H]2O[C@H](CO)[C@@H](O)[C@H]2O)c(=O)n1 [azacitidine]
  Fold change vs veh, TMEM50B: 0.94
